Data published in patent US9012493B2, “1-heterodiene derivative and pest control agent” (Nippon Soda Co., Ltd., priority 2009, dated 2015).

How the values were obtained:
Type in all cases: in vivo
[1] = tested on: Cotton Aphid (Aphis Gossypii); assay: Efficacy test against cotton aphid, spray on cucumber plant; conditions: 125 ppm, emulsifiable concentrate diluted with water, sprayed over cucumber plant with nymphs, after 5 days, 25° C.
Description: (§1) Test Examples of the pest control agent thus obtained according to the present invention are shown below. In respective Test Examples, the insecticidal rate (%) was determined by the following calculation equation. Insecticidal rate (%)=(number of dead pests/number of released pests)×100
The emulsifiable concentrate obtained according to Formulation of Formulation Example 2 was diluted with water so as to control the concentration of the compound to 125 ppm. Adults of cotton aphids were inoculated to a cucumber plant (approximately 10 days after sprouting) sown in a 3 sun/size pot (9 cm). After 1 day, adult aphids were removed and the diluted solution was sprayed over the cucumber plant on which delivered nymphs are parasitic. The pot was placed in a temperature-controlled room at a temperature of 25° C. and a humidity of 65%. After 5 days, life and death were examined and the insecticidal rate was determined. The test was repeated twice.

[2] = tested on: Rice Armyworm (Mythimna Separata); assay: Efficacy test against rice armyworm, corn leaf dip; conditions: 125 ppm, emulsifiable concentrate diluted with water, corn leaves immersed, second instar larvae, after 5 days, 25° C.
Description: as §1
The emulsifiable concentrate obtained according to Formulation of Formulation Example 2 was diluted with water so as to control the concentration of the compound to 125 ppm. Leaves of corn were immersed in this diluted solution for 30 seconds and then air-dried. The leaves were put in a petri dish on which a filter paper is laid, and then five second instar larvae of rice armyworm were inoculated. After covering the petri dish with a glass lid, the petri dish was placed in a temperature-controlled room at a temperature of 25° C. and a humidity of 65%. After 5 days, life and death were examined and the insecticidal rate was determined. The test was repeated twice.

[3] = tested on: Sweetpotato Whitefly (Bemisia Tabaci); assay: Efficacy test against sweetpotato whitefly, sprayed tomato leaf; conditions: 125 ppm, emulsifiable concentrate diluted with water, adults (type B), after 2 days, 25° C.
Description: as §1
The emulsifiable concentrate obtained according to Formulation of Formulation Example 2 was diluted with water so as to control the concentration of the compound to 125 ppm. The diluted solution was sprayed over a tomato leaf obtained by cutting and then air-dried. Using absorbent cotton, the leaf was fixed to a flask so that a front surface of the leaf faces upward. Seven pairs of adults of sweetpotato whitefly (type B) were inoculated in this container, and the container was placed in a temperature-controlled room at a temperature of 25° C. and a humidity of 65%. After 2 days, life and death were examined and the insecticidal rate was determined. The test was repeated twice.

[4] = tested on: Twospotted Spider Mite (Tetranychus Urticae Koch); assay: Efficacy test against twospotted spider mite, spray on kidney bean plant; conditions: 125 ppm, wettable powder diluted with water, sprayed, female adults with resistance to an organophosphorus agent on kidney bean, after 3 days
Description: The wettable powder obtained according to Formulation of Formulation Example 1 was diluted with water so as to control the concentration of the compound to 125 ppm. Seventeen female adults of twospotted spider mite with resistance to an organophosphorus agent were inoculated on a first true leaf of a kidney bean plant (approximately 7 to 10 days after sprouting) sown in a 3 sun/size pot (9 cm). The diluted solution was sprayed. The pot was placed in a temperature-controlled room at a temperature of 25° C. and a humidity of 65%. After 3 days, the adulticidal rate was examined. The test was repeated twice.

CC(C)=C1CCC(=CSc2ccccc2)C(=Nc2ccc(C)cc2)S1 (mixture of isomers) [Compound 6-1]
100%: insecticidal rate [1] | insecticidal rate [2] | insecticidal rate [3] | adulticidal rate [4]

C=C1SC(=Nc2ccc(C)cc2)C(=CSc2ccccc2)CC1c1ccccc1 (racemic) [Compound 2-15]
100%: insecticidal rate [1] | insecticidal rate [2] | insecticidal rate [3] | adulticidal rate [4]

CC(C)=C1CCC(=C\Sc2ccccc2)/C(=N/c2ccc(Cl)cc2)S1 [Compound 2-2, (4-chloro-phenyl)-{6-isopropylidene-3-[1-phenylsulfanyl-(E)-methylidene]-tetrahydro-thiopyran-(2Z)-ylidene}-amine]
100%: insecticidal rate [1] | insecticidal rate [2] | insecticidal rate [3] | adulticidal rate [4]

CC/C=C1/CCC(=C\Sc2ccccc2)/C(=N/c2ccc(Cl)cc2)S1 [Compound 2-3]
100%: insecticidal rate [1] | insecticidal rate [2] | insecticidal rate [3] | adulticidal rate [4]

C=C1CCC(=CSc2ccccc2)C(=Nc2ccc(C)cc2)S1 [Compound 2-4]
100%: insecticidal rate [1] | insecticidal rate [2] | insecticidal rate [3] | adulticidal rate [4]

C=C1CCC(=CSc2ccc(F)cc2)C(=Nc2ccc(C)cc2)S1 [Compound 2-6]
100%: insecticidal rate [1] | insecticidal rate [2] | insecticidal rate [3] | adulticidal rate [4]

C=C1SC(=N\c2ccc(C)cc2)/C(=C/Sc2ccccc2)CC1(C)C [Compound 2-11, {5,5-dimethyl-6-methylene-3-[1-phenylsulfanyl-(E)-methylidene]-tetrahydro-thiopyran-(2Z)-ylidene}-p-tolyl-amine]
100%: insecticidal rate [1] | insecticidal rate [2] | insecticidal rate [3] | adulticidal rate [4]

C=C1SC(=Nc2ccc(Cl)cc2)C(=CSc2ccccc2)CC1(C)C [Compound 2-12]
100%: insecticidal rate [1] | insecticidal rate [2] | insecticidal rate [3] | adulticidal rate [4]

C=C1SC(=Nc2ccc(Cl)cc2)C(=CSc2ccc(F)cc2)CC1(C)C [Compound 2-13]
100%: insecticidal rate [1] | insecticidal rate [2] | insecticidal rate [3] | adulticidal rate [4]

C=C1CCC(=CSc2ccccc2)C(=[NH+]c2ccc(C)cc2)S1.F[B-](F)(F)F [Compound 2-14]
100%: insecticidal rate [1] | insecticidal rate [2] | insecticidal rate [3] | adulticidal rate [4]

C=C1SC(=Nc2ccc(C)cc2)C(=CSc2ccccc2)CC12CCCCC2 [Compound 2-17]
100%: insecticidal rate [1] | insecticidal rate [2] | insecticidal rate [3] | adulticidal rate [4]

C=C1SC(=Nc2ccc(C)cc2)C(=CSc2cccc(OC)c2)CC1(C)C [Compound 2-20]
100%: insecticidal rate [1] | insecticidal rate [2] | insecticidal rate [3] | adulticidal rate [4]

C=C1SC(=Nc2ccc(OC)c(C)c2)C(=CSc2ccccc2)CC1(C)C [Compound 2-34]
100%: insecticidal rate [1] | insecticidal rate [2] | insecticidal rate [3] | adulticidal rate [4]

C=C1SC(=Nc2ccc(Cl)c(Cl)c2)C(=CSc2ccccc2)CC1(C)C [Compound 2-35]
100%: insecticidal rate [1] | insecticidal rate [2] | insecticidal rate [3] | adulticidal rate [4]

C=C1SC(=Nc2cccc(C(F)(F)F)c2)C(=CSc2ccccc2)CC1(C)C [Compound 2-36]
100%: insecticidal rate [1] | insecticidal rate [2] | insecticidal rate [3] | adulticidal rate [4]

C=C1SC(=Nc2ccc(OC)cc2C)C(=CSc2ccccc2)CC1(C)C [Compound 2-40]
100%: insecticidal rate [1] | insecticidal rate [2] | insecticidal rate [3] | adulticidal rate [4]
